What follows are compounds tested against T1, Axl (Homo sapiens, UniProt P30530) (assay: Cellular Axl inhibition ELISA (p-Axl, Gas6-induced) using H1299 cells). Details: read-out: Cellular Axl activity by H1299 Elisa (IC50).
T1 sequence (P30530 26-894): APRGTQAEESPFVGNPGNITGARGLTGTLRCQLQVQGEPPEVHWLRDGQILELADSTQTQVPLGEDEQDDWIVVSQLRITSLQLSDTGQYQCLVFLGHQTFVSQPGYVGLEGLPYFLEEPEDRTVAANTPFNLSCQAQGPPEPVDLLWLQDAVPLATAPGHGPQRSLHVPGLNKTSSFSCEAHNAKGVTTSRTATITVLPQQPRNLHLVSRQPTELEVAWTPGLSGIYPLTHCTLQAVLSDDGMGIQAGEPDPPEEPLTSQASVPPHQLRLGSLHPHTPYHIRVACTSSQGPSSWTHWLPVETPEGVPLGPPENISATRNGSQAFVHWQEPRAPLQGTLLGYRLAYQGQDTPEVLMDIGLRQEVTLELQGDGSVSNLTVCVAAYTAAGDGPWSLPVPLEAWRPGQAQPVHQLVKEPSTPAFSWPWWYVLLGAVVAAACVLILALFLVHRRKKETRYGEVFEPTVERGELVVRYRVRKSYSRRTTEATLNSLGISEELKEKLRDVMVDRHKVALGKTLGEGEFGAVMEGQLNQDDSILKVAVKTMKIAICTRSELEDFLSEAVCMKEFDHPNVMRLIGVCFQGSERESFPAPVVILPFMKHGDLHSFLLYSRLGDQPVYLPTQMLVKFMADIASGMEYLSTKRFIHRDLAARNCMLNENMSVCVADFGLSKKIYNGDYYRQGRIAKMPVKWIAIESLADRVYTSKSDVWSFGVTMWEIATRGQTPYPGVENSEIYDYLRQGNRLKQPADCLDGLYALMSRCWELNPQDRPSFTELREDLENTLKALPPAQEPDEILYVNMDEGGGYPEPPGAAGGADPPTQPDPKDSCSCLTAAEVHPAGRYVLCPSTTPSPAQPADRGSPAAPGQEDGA
Format: cell-based
Set-up: especially H1299 cell endogenously expresses Axl; endogenous in cells; host or cells: H1299
In short: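 H1299 cells, seeded overnight, exposed 24 h at 37 °C to 10-point 3-fold compound dilutions, then stimulated with 200 ng/ml human Gas6 (final) for 1 h. Lysates assayed for p-Axl by sandwich ELISA with HRP/TMB, absorbance 450 nm; IC50 by sigmoidal dose-response fit.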
With COc1cc2nccc(Oc3ccc(NC(=O)c4nn(CCN)cc4OCC(F)(F)F)cc3C)c2cc1OC [Compound 82] the IC50 was at least 1000 nM.
COc1cc2nccc(Oc3ccc(NC(=O)c4nn(C5CC5)cc4OCC(F)(F)F)nc3)c2cc1OC [Compound 5] was tested, and the IC50 was under 500 nM.
For COc1cc2nccc(Oc3ccc(NC(=O)c4nn(C5CCOC5)cc4OCC(F)(F)F)cc3C)c2cc1OC (stereo not shown) [Compound 85], the IC50 was under 500 nM.
Compound COc1cc2nccc(Oc3ccc(NC(=O)c4nn(C5CCOCC5)cc4OCC(F)(F)F)nc3)c2cc1OC [Compound 90] has an IC50 of under 500 nM.
COc1cc2nccc(Oc3ccc(NC(=O)c4nn(CC(C)C)cc4OCC(F)(F)F)cc3)c2cc1OC [Compound 87] was tested, and the IC50 was under 500 nM.
COc1cc2nccc(Oc3ccc(NC(=O)c4nn(CC(C)O)cc4OCC(F)(F)F)cc3F)c2cc1OC (stereo not shown) [Compound 80] was tested, and the IC50 was under 500 nM.
Compound COCCn1cc(OCC(F)(F)F)c(C(=O)Nc2ccc(Oc3ccnc4cc(OC)c(OC)cc34)c(C)c2)n1 [Compound 84] has an IC50 of under 500 nM.
With COc1cc2nccc(Oc3ccc(NC(=O)c4nn(CCC5CCCC5)cc4OCC(F)(F)F)nc3)c2cc1OC [Compound 93] the IC50 was under 500 nM.
For COc1cc2nccc(Oc3ccc(NC(=O)c4nn(C5CCNC5)cc4OCC(F)(F)F)cc3C)c2cc1OC (stereo not shown) [Compound 81], the IC50 was at least 1000 nM.
COc1cc2nccc(Oc3ccc(NC(=O)c4nn(C5CCNC5)cc4OCC(F)(F)F)cc3F)c2cc1OC (stereo not shown) [Compound 78] was tested, and the IC50 was under 500 nM.
With COc1cc2nccc(Oc3ccc(NC(=O)c4nn(C5CCN(C)C5)cc4OCC(F)(F)F)nc3)c2cc1OC (stereo not shown) [Compound 91] the IC50 was under 500 nM.
For COc1cc2nccc(Oc3ccc(NC(=O)c4nn(C5CCN(C)C5)cc4OCC(F)(F)F)c(F)c3)c2cc1OC (stereo not shown) [Compound 94], the IC50 was under 500 nM.
COc1cc2nccc(Oc3ccc(NC(=O)c4nn(C5CCOC5)cc4OCC(F)(F)F)c(F)c3)c2cc1OC (stereo not shown) [Compound 77] showed an IC50 of under 500 nM.
COc1cc2nccc(Oc3ccc(NC(=O)c4nn(CC(C)O)cc4OCC(F)(F)F)cc3C)c2cc1OC (stereo not shown) [Compound 83] gave an IC50 of under 500 nM.
With COc1cc2nccc(Oc3ccc(NC(=O)c4nn(CC(C)O)cc4OCC(F)(F)F)cc3)c2cc1OC (stereo not shown) [Compound 89] the IC50 was under 500 nM.
Compound COc1cc2nccc(Oc3ccc(NC(=O)c4nn(CC5COC5)cc4OCC(F)(F)F)c(F)c3)c2cc1OC [Compound 95] has an IC50 of under 500 nM.
Work on COc1cc2nccc(Oc3ccc(NC(=O)c4nn(CCN)cc4OCC(F)(F)F)cc3F)c2cc1OC [Compound 79] yielded an IC50 of under 500 nM.
For COc1cc2nccc(Oc3ccc(NC(=O)c4nn(C5CCNC5)cc4OCC(F)(F)F)cc3)c2cc1OC (stereo not shown) [Compound 86], the IC50 was under 500 nM.
COc1cc2nccc(Oc3ccc(NC(=O)c4nn(CCN)cc4OCC(F)(F)F)cc3)c2cc1OC [Compound 88] was tested, and the IC50 was 500 to 1000 nM.
